Experimental data: publication PMC9791135, “A penetratin-derived peptide reduces the membrane permeabilization and cell toxicity of α-synuclein oligomers” (The Journal of Biological Chemistry, 2022)
pKd: −log10 of the molar value. Where a SMILES comes first, the peptide text is derived from it.

Columns and labels:
α-syn [1] = conditions: cited from earlier work
Description: Cell-penetrating peptides (CPPs) ([57]) are defined as a short relatively nontoxic and partly hydrophobic and/or polybasic peptides ([…] 5–35 amino acid residues), with a net positive charge at physiological pH. CPPs have the ability of interacting with negatively charged groups on the cellular membrane, which results in their internalization ([58], [59]) but can also cotransport a variety of cargoes inside the cells ([58], [60], [61], [62]). Cationic CPPs are able to translocate across membranes in a nonendocytotic fashion, generally by one of following mechanisms: the inverted micelle mo ...

[2] = vesicles formed by DOPG and other negatively charged lipids; cited from earlier work
Protocol: Penetratin forms β-structures on vesicles formed by DOPG and other negatively charged lipids (at concentrations >10^−3 mg/ml), leading to membrane perturbation ...

αSOs = molecular target: T1, αSOs (Homo sapiens, UniProt P37840); assay: Calcein release assay, αSOs together with peptides; assay type: biochemical
T1 construct: made in house; host or cells: Escherichia coli BL21 (DE3); oligomers formed by shaking the monomer and isolated by SEC (Superose 6)
Protocol: αSOs show cytotoxic properties, which have been attributed to their membrane-disrupting ability ([69]). To examine the effect of peptides on membrane permeabilization by αSOs, we used a simple calcein release assay. αSOs, peptides, and aSO–peptide mixtures at 10^−6 to 10^−1 mg/ml peptide were added to calcein-loaded DOPG vesicle, and the extent of calcein release was monitored for 30 min by the increase in fluorescence as calcein leaks out upon membrane permeabilization, leading to dilution and the loss of self-quenching. The time-dependent calcein release data from DOPG vesicles ([70], [71]) in the presence of peptides, αSOs, and αSO–peptides are shown in Figs. S9 and S10. In order to allow easy comparison of all peptides, the calcein release versus concentration (peptides and αSOs) were plotted at the plateau point of release (Fig. 5, A–C). […] Figure 5D compares calcein release percentages of data represented in Figure 5, A and B at peptide concentrations between 0.001 and 0.1 mg/ml, where we see the largest extent of calcein release in general.
Calcein-filled vesicles of DOPG were prepared as described before ([38]). Briefly, DOPG was dissolved in PBS to […], in the presence of calcein at self-quenching concentrations (70 mM) and subjected to 10 freeze–thaw cycles between liquid nitrogen and a 50 °C water bath. After 21 times extrusion through a 100 nm filter, free calcein was separated from vesicles with a PD-10 desalting column (GE Healthcare). Vesicles were stored at 4 °C and used for calcein release assays within 24 h.
Calcein release was measured by mixing peptides and/or αSOs at a final concentration of 10^−6 to 10^−1 mg/ml and 5.2 μg/ml, respectively, in 148 μl with 2 μl of calcein vesicles, and were then loaded onto a 96-well plate (Nunc, Thermo Fischer Scientific) in triplicate. The plate was sealed with Crystal clear sealing tape (Hampton Research), and fluorescence was measured (excitation: 485 nm and emission: 520 nm) for 1 h at 37 °C every 2 min with a 2 s autoshake before each reading on a fluorescence plate reader (Tecan). Finally, 2 μl Triton X-100 (0.2% [v/v]) was added to lyse vesicles, and the maximal fluorescence signal was measured for 20 min under the same reading condition. Background fluorescence was subtracted, and the average signal of calcein release before addition of Triton X-100 (F), after treatment with Triton X-100 (Ft) and for the buffer control (F0) were determined, and calcein release percentage was calculated as follow (Equation 1):(1) CalceinRelease%(CR%)=(F−F0)/(Ft−F0)

α-syn [3] = molecular target: T2, α-syn (Homo sapiens, UniProt P37840); assay: Microfluidic diffusional sizing binding affinity (Fluidity One-W), α-syn monomer; conditions: 60 μM labeled p216, 0–400 μM α-syn monomer, MilliQ water, 15 min in the dark; 1:1 binding fit of Rh; read-out: Dissociation binding constant (Kd) for α-syn
T2 construct: made in house; host or cells: Escherichia coli BL21 (DE3), plasmid pET11-D
Protocol: (§1) To determine an actual binding affinity of p216 to αSOs and α-syn, the hydrodynamic radius (Rh) of labeled p216 bound to unlabeled αSOs–α-syn was determined by microfluidic diffusional sizing ([72]). […] Rather, a direct and easily interpretable parameter is provided in the form of the Rh. […] For both species, binding of peptide led to a significant increase in Rh, confirming peptide immobilization in complex with these states. The measured values of ca. 5 and 11 nm for α-syn and αSO, respectively, agree nicely with the known Rh of α-syn ([73]) (4 nm) and αSO (10 nm) ([74]).
(§2) Peptides were labeled with fluidiphore rapid amine 503 (Fluidic Analytics Limited), an amine-reactive fluorescent label whose absorbance shifts from 612 nm (free) to 503 nm when conjugated. About 1 mg dry fluidiphore dye was dissolved in 100 μl acetonitrile and stored at −20 °C. The peptide stock solutions were diluted into labeling buffer (0.1 M NaHCO3, pH 8.3) to a final concentration of 1 mg/ml (100 μl) and mixed with 3 μl of dye solution (final dye concentration of […]) and incubated for 30 min at RT. […]
(§3) Fluidity One-W (Fluidic Analytics Limited) ([101]) was used to measure the binding affinity and Rh of peptides bound to α-syn monomers and oligomers. We determined the lowest concentration of labeled peptides that could be detected by the instrument to be 60 μM. […]

SH-SY5Y cells [4] = conditions: 10 μM αSOs (0.14 μg/ml) with 35 μg/ml peptide, 24 h, MTT
Protocol: (§4) The effect of the peptides on αSOs toxicity in SH-SY5Y cells using 3-(4, 5-dimethylthiazol-2-yl)-2,5-diphenyltetrazolium bromide (MTT) cell viability assay was also tested to complement our calcein data.
(§5) We used the MTT assay to measure cell viability after 24 h treatment with αSOs in the presence of peptides. SH-SY5Y cells were seeded in 96-well plates at a density of 5 × 10^4 cell/ml in Dulbecco's modified Eagle's medium supplemented with 10% FBS, 100 unit/ml penicillin, and […]. The cells were incubated in a humidified atmosphere incubator with 5% CO2 and 95% humidity at 37 °C for 24 h. The culture medium was then replaced with fresh medium containing 10 μM αSOs with peptides and incubated for another 24 h. Then the cell medium was replaced with a fresh medium containing 20% MTT (5 mg/ml), and the cells were incubated for an additional 4 h at 37 °C. Then 100 μl of dimethyl sulfoxide was added to dissolve formazan crystals by incubating for 30 min on a shaker at RT. Consequently, absorbance was measured by using a plate reader at 570 nm.

αSO = molecular target: T3, αSO (Homo sapiens, UniProt P37840); assay: Microfluidic diffusional sizing binding affinity (Fluidity One-W), αSO; conditions: 60 μM labeled p216, 0–84 μM αSO, MilliQ water, 15 min in the dark; 1:1 binding fit of Rh; read-out: Dissociation binding constant (Kd) for αSO
T3 construct: made in house; host or cells: Escherichia coli BL21 (DE3); oligomers formed by shaking the monomer and isolated by SEC (Superose 6)
Protocol: as §1, §2, §3

SH-SY5Y cells [5] = assay: MTT cell viability assay, substance alone
Protocol: as §4, §5

Compound: RQIKIWFQNRRMKWKK [Penetratin, cell-penetrating peptide from the third helix of the Antennapedia protein homeodomain]
- Effect on fibrillation of α-syn (α-syn [1]): inhibit fibrillation of α-syn
- Concentration at which β-structures form on vesicles, leading to membrane perturbation and permeabilization [2]: > 10^−3 mg/ml

Compound: CSCC[C@H](NC(=O)[C@H](CCCNC(=N)N)NC(=O)[C@H](CCCNC(=N)N)NC(=O)[C@H](CC(N)=O)NC(=O)[C@H](CCC(N)=O)NC(=O)[C@H](Cc1ccccc1)NC(=O)[C@@H](N)Cc1c[nH]c2ccccc12)C(=O)N[C@@H](CCCCN)C(=O)N[C@@H](Cc1c[nH]c2ccccc12)C(=O)N[C@@H](CCCCN)C(=O)N[C@@H](CCCCN)C(=O)O [p216] (H-WFQNRRMKWKK-OH)
- Reduction of αSO-induced membrane permeability (αSOs; calcein-filled DOPG LUVs, peptide concentration not stated at the place): 100%
- Reduction of αSOs-induced large anionic unilamellar vesicle membrane permeability (αSOs; peptide at 10^−1 to 10^−3 mg/ml): ~100%
- pKd (α-syn [3]): 4.51
- Increase of cell viability compared with αSOs alone (SH-SY5Y cells [4]): about 20%
- pKd (αSO): 5.57
- Cell viability (MTT) (SH-SY5Y cells [5]; SH-SY5Y cells, 35 μg/ml peptide alone, 24 h): 92%
- Toxicity to SH-SY5Y cells, in words (SH-SY5Y cells [5]; peptide alone, MTT): not toxic
